The text below walks through data of US12377127B2, “Treatment for diseases caused by RNA virus SARS-CoV-2” (Amerimmune, LLC, priority 2020, dated 2025).

The target of assay [1] is T1, Caspase 1 (Homo sapiens, UniProt P29466).
T1 construct: A Fam-FLICA probe specific for Caspase 1 was directly added to 50 μl PBMC; endogenous in cells; host or cells: PBMC (CD3-, CD3+, CD3+CD4+ lymphocytes) purified from human whole blood
T1 sequence (P29466 120-297 limits assumed): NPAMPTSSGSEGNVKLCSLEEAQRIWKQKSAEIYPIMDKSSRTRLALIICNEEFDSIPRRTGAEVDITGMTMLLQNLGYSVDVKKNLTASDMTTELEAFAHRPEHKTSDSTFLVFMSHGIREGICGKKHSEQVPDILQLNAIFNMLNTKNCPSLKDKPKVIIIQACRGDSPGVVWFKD
T1 sequence (P29466 317-404 limits assumed): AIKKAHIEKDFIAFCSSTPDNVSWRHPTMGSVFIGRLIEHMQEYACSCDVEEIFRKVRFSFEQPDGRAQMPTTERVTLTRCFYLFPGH
Put plainly: Ex vivo stimulation: active caspase-1 in CD4 T (T-helper) cells after whole blood incubation with caspase inhibitors (Example 9). The format is cell-based. Conditions: inhibitor 24 hrs, then with or without nigericin; for T-helper cell caspase-1 expression: COVID-19 whole blood samples. How it is done:
Apoptosis and pyroptosis were measured by flow cytometry using fluorescent-labeled inhibitors of caspase probe assay (FLICA; Immunochemistry Technologies, Minneapolis, MN). As a control, PBMCs were stimulated with nigericin for 2 hours. FAM-FLICA probes specific for caspase-1 was added to 50 μl PBMC and incubated for 1h at 37° C. Cells were subsequently washed and stained for CD45 PE-CY7 [HI30], CD3 AF700 [UCHT1], CD4 PE [RPA-T4], CD45RO PerCP-EF710 [UCHL1], and Viability Dye 780 (Thermo Fisher Scientific, Carlsbad, CA). Samples were acquired on a 3 laser BD FACS Canto 10. CS&T beads (BD Bioscience, San Jose, CA) were acquired daily to ensure consistent performance of the Canto10. The CANTO10 utilized for this study was validated for T, B, NK, and dendritic cell immunophenotyping clinical diagnostic testing. Denovo FCS Express v6 clinical edition (De Novo Software, Pasadena, CA) was used for flow cytometric analyses.
Active caspase-1 in COVID-19+ patient samples. Whole blood from a COVID-19 positive patient was either (A) untreated or (B) treated with emricasan (1 μM, Sigma Aldrich, MO, SML2227-5MG) or selective caspase-1 inhibitor VX765 overnight at 37° C. in a water bath. Subsequently, PBMCs were purified (Accuspin System—Histopaque 1077; Sigma Aldrich, MO, A6929) and incubated with nigericin (Immunochemistry Technologies, MN) for 2h. A Fam-FLICA probe specific for active caspase-1 was added to 50 μl PBMC and then incubated for 1h at 37° C. PMBCs were washed with cell wash buffer (Immunochemistry Technologies, MN) and stained with CD45 PE-CY7 [H130], CD3 AF700 [UCHT1], CD4 PE [RPA-T4], CD45RO PerCP-EF710 [UCHL1], and Viability Dye 780 (Thermo Fisher Scientific, Carlsbad, CA). Lymphocytes were identified using a standard gating schematic that incorporated gating of lymphocytes on an FSC/SSC plot and singlets on a FSC-A/FSC-H plot. Lymphocytes were further identified as CD45+ on a CD45/SSC plot and subsequent CD3−, CD3+ and CD3+CD4+ cells were identified on a CD45+ CD3/CD4 plot. Shown are the active caspase-1 MFI and % positive for the three cellular populations indicated. […]

Assay [2] concerns red blood cell (RBC) layer in the PBMC layer ("red ring"). It counts as cell-based, human. The settings on record: PBMCs from COVID-19 patient samples, 1 micromolar, room temperature, 17 hours.
The target of assay [3] is T1, Caspase 1. Put plainly: Active caspase-1 by FAM-FLICA flow cytometry in PBMCs from Emricasan-treated COVID-19(+) whole blood (Example 7). The format is cell-based. The settings on record: 1 μM. Here is the method:
Whole blood from COVID-19(+) patients was incubated either (A) without addition of Emricasan (Untreated) or (B) with Emricasan (Sigma Aldrich, MO, SML2227-5MG), 1 μM final concentration for 3.5 hours at room temperature (Treated). Following incubation with or without Emricasan, PBMCs were purified using an Accuspin System—Histopaque 1077 (Sigma Aldrich, MO, A6929) as per the manufacturer's instructions. Purified Treated and Untreated PBMCs were incubated with nigericin (Immunochemistry Technologies, MN) as per the manufacturer's instructions for 2 hours. A Fam-FLICA probe specific for Caspase 1 was directly added to 50 μl PBMC and then incubated for 1 hour at 37° C. PMBCs were washed with cell wash buffer (Immunochemistry Technologies, MN) to remove unbound FLICA probes. Washed PBMCs were FACS-sorted using CD45 PE-CY7 [H130], CD3 AF700 [UCHT1], CD4 PE [RPA-T4], CD45RO PerCP-EF710 [UCHL], and Viability Dye 780 (Thermo Fisher Scientific, Carlsbad, CA) to identify viable CD3−cells as well as CD3+ cells and CD3+ CD4+ T cells. Lymphocytes were identified using a standard gating schematic that incorporated gating of lymphocytes on a FSC/SSC plot and singlets on a FSC-A/FSC-H plot. Lymphocytes were further identified as CD45+ on a CD45/SSC plot and subsequent CD3−, CD3+, and CD3+ CD4+ cells were identified on a CD45+ CD3/CD4 plot.
In another experiment, whole blood was incubated with 1 μM Emricasan for 17 hours (overnight between 5 PM to 10 AM) at room temperature on a rocker. The same experiment described above to examine active caspase 1 in PBMCs was performed.

In the next assay the target is T2, caspase-3 (Homo sapiens, UniProt P42574).
T2 construct: EMR suppressed the caspase-3 up-regulation in the COVID-19 plasma incubated samples; endogenous in cells; host or cells: human red blood cells (healthy subjects' RBCs incubated with patient plasma)
T2 sequence (P42574 29-277): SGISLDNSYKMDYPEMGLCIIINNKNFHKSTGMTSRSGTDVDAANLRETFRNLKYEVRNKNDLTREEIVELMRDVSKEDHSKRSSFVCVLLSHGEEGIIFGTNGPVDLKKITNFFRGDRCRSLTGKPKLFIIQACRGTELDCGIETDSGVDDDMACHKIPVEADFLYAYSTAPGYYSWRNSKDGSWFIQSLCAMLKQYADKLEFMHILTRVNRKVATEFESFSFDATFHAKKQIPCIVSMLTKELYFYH
Put plainly: Caspase-3 in RBCs incubated with patient plasma (Example 9). It counts as cell-based. How it is done:
Plasma was separated from whole blood following centrifugation at 960 RCF. Cells (RBC and WBC) were either incubated at 37° C. alone or in the presence of trypsin for 1 hour then washed with 10 packed cell volumes of RPMI 1640 incomplete medium. Plasma was either held at room temperature (18-25° C.) or heat inactivated at 56° C. for 1 hr. Plasma was added back to the RBC/WBC in a 1:1 ratio and incubated overnight, rocking at room temperature.
Cellular caspases are not limited to immune cells. […] In the process of Ficoll separation, a layer of RBCs contaminating the PBMC layer was observed, which layer was universally present in all samples from COVID-19 individuals (FIG. 6A). This finding was also present in up to 80% of COVID-19 convalescent subjects. Plasma from acutely infected subjects induced a similar finding when incubated overnight with plasma depleted whole blood of healthy patients.

Where [4] appears, read: COVID-19(+) whole blood, 3.5 hours, room temperature, nigericin 2 hours, CD3-, CD3+, CD3+CD4+ cells, vs untreated, p≤0.005.

In the case of `C[C@H](NC(=O)C(=O)Nc1ccccc1C(C)(C)C)C(=O)N[C@@H](CC(=O)O)C(=O)COc1c(F)c(F)cc(F)c1F` [Emricasan, (3S)-3-{[(2S)-2-{[2-(2-tert-butylanilino)-2-oxoacetyl]amino}propanoyl]amino}-4-oxo-5-(2,3,5,6-tetrafluorophenoxy)pentanoic acid], the “T-helper cell caspase-1 expression” value on Caspase 1 [1] is “suppressed”. The “T-helper cell caspase-1 upregulation” value on Caspase 1 [1] (healthy subjects' whole blood) is given as “prevented its upregulation”. In addition, in assay [2], the “"red ring" (RBC layer contaminating PBMCs)” value is on record as “decrease”. Further, at Caspase 1 [3] (setting [4]), the “active caspase-1 % positive cells” value was “significant reduction” and the “active caspase-1 MFI” value is given as “significant reduction”. In addition, the “inhibition of nigericin-induced Caspase-1 activity” value at Caspase 1 [3] (whole blood, 17 hours (overnight), room temperature on a rocker, 3 samples from COVID-19 patients) is reported as “seen in only ⅓ sample”. For the same compound, at caspase-3 (healthy subjects' RBCs incubated with COVID-19 plasma), the “RBC caspase-3 up-regulation” value is “suppressed”. For the same compound, the “RBC caspase-3 baseline expression levels” value on caspase-3 (influenza-plasma incubated samples) was “did not change”.
In the case of `CCO[C@@H]1OC(=O)C[C@@H]1NC(=O)[C@@H]1CCCN1C(=O)[C@@H](NC(=O)c1ccc(N)c(Cl)c1)C(C)(C)C` [VX765, Belnacasan], at Caspase 1 [1], the “T-helper cell caspase-1 expression” value is “did not show a strong similar suppressive effect”.
